The record followed here is patent US7365080B2, “Pharmaceutical compositions comprising thieno[2,3-c]pyridine derivatives and use thereof” (Rimonyx Pharmaceuticals Ltd., priority 2003, dated 2008).

One experiment deals with Mice. Description: Delayed-type hypersensitivity (oxazolone, ear-swelling test). Format: in vivo, mouse. Particulars: 3 mg/kg iv, 24 hours after challenge. As to the method:
Mice (15 animals per group) were sensitized by topical application of a 2% oxazolone (4-ethoxymethylene-2-phenyl-2-oxazoline-5-one; Sigma, St Louis, Mo.) solution in acetone/olive oil (4:1 vol/vol) to shaved abdomen (50 μl) and to each paw (5 μl) (Lange-Asschenfeldt B. et al., Blood 99:538-545, 2002). Five days after sensitization, right ears were challenged by topical application of 10 μl of a 1% oxazolone solution, whereas left ears were treated with vehicle alone. Compounds were administered 1 hr prior to challenge. The extent of inflammation was measured 24 hours after challenge, using the mouse ear-swelling test. The unpaired Student t test was used for statistical analyses.

In another experiment the target is T1, L-Selectin (Homo sapiens, UniProt P14151).
T1 construct: purchased Research and Development Systems 728-LS
T1 sequence (P14151 39-332 limits assumed): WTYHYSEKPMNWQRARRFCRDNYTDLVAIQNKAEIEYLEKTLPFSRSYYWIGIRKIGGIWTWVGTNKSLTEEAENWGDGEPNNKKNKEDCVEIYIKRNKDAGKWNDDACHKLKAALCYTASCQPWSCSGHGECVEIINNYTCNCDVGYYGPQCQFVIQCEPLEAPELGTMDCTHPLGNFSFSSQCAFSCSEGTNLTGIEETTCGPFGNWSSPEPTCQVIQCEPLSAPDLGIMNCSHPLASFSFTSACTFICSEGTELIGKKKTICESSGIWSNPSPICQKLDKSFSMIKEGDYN
Kind of experiment: ELISA: inhibition of L-selectin/IgG binding to immobilized heparin (Heparin-BSA). The settings on record: L-Selectin binding to heparin; 50 μM. Here is the method: The inhibitory effect of the compounds of the present invention can be evaluated by several methods in vitro. One assay for measuring GAG-ECAM binding, exemplified herein below, detects the binding of L selectin/IgG to immobilized heparin. Another assay utilizes immobilized L-selectin, or L-selectin fused to protein domains other than IgG. The amount of bound L-selectin is determined by an ELISA assay using, for example, a monoclonal antibody raised against L-selectin, which is conjugated to horseradish peroxidase. […] The Dregg-55 antibody was also shown to inhibit L-selectin-dependent adhesion in vitro, neutrophil accumulation in vitro and inflammation in vivo (Co M. S. et al, Immunotechnology 493: 253-266, 1999).
An in vitro assay was used to assess the ability of test compounds according to formula I to inhibit the interactions of L-selectin with HS-GAGs. The assay was suitable for determining the concentration required for 50% inhibition (IC-50) for each specific compound. In the assay, the GAG used was heparin. Thus, porcine intestinal mucosa heparin conjugated to Bovine Serum Albumin (Heparin-BSA; Sigma Cat. No. H0403) at […] in Phosphate Buffered Saline (PBS; pH 6.5) was added to a 96 well polystyrene ELISA plate (NUNC Cat. No. 442404; 0.1 ml per well) and incubated Over Night (ON) at 4° C. Following the incubation, the plate was washed thoroughly, by immersion, with de-ionized water and PBS (pH 6.5). The ELISA plate was then blocked with BSA (ICN Cat. No.160069, 3%, 200 μl per well) for 1 hour at Room Temperature (RT). Following blocking, the plate was washed with de-ionized water, and then with PBS (pH 6.5) containing Tween 20 (Sigma Cat. No. P-1379, 0.05%). Compounds were synthesized or purchased from ChemDiv Labs (San Diego, Calif.), dissolved in DMSO, diluted in PBS and added to the wells at various concentrations in the range of 0.01 to 300 μM. Recombinant Human L-Selectin/IgG (Research and Development Systems Cat. No.728-LS) dissolved in PBS supplemented with BSA (0.1%) and calcium chloride (1 mM) was added to the ELISA plate (100 μl per well) and incubated for 60 minutes at RT with shaking. Following incubation, the plate was washed with de-ionized water and three times with PBS (pH 6.5) containing Tween 20. Anti-Human IgG Peroxidase Conjugate (1:5000; Sigma Product No. A8667) diluted in PBS supplemented with BSA (0.1%) and calcium chloride (1 mM) was added to the ELISA plate (100 μl per well) and incubated for 30 minutes at RT with shaking. The plate was then washed with de-ionized water and three times with PBS (pH 6.5) containing Tween 20. The peroxidase substrate cromogen, TMB (Dako Cat. No. S1599) was added (100 μl per well) to the ELISA plate and incubated at room temperature. After 15 minutes ELISA Stop Solution (hydrochloric acid 1N, sulfuric acid 3N) was added (200 μl per well) to stop the peroxidase catalyzed colorimetric reaction. The Optical Density (OD) of the samples was measured at 450 nm using an ELISA plate reader (Dynatech MR5000). Data were analyzed with Graphpad Prism software and IC-50 values were established. The P-selectin assay was carried out in a similar fashion, except that Recombinant Human P-Selectin/IgG (Research and Development Systems Cat.No.137-PS) was used.

For experiment [1], the system named is BALB/c mice. Kind of experiment: Thioglycollate-induced leukocyte and neutrophil infiltration into mouse peritoneum. The class given is in vivo. As to the method: The ability of compounds of the present invention to reduce leukocyte migration to sites of acute inflammation was evaluated in BALB/c mice using a thioglycolate-induced model of peritonitis. In this animal model, interactions of L- and P-selectin with HS-GAGs have been implicated in neutrophil infiltration (Nelson, R. M., 82:3253-3258, 1993; Xie, X. et al., J. Biol. Chem., 275:34818-34825, 2000).
BALB/c mice (6 weeks old, ˜20 g in weight, 15 mice/group) received intraperitoneal injection of an inhibitor compound in 0.2 ml DMSO/Tween/sterile saline 1 hour before administration of thioglycollate (Sigma). Control groups received vehicle and sham controls received no thioglycollate. Mice were injected intraperitoneally with 1 ml of 3% thioglycollate broth (Xie, X. et al., J. Biol. Chem., 275, 34818-34825, 2000). Mice were sacrificed after 3 hours, and the peritoneal cavities were ravaged with […] of ice-cold saline containing 2 mM EDTA to prevent clotting. After red blood cell lysis, leukocytes were counted in a hemocytometer. Neutrophils were counted after staining with Türck. Data was expressed as mean±SEM, and statistical analysis was performed by Student t test. A value of P<0.05 was taken to denote statistical significance.

For experiment [2], the system named is immobilized heparin / L-selectin/IgG. Kind of experiment: Assay 1: direct interaction with heparin, pre-incubation versus co-incubation with L-selectin. The class given is binding. Particulars: compound 0.1-200 μM, 90 min, washed before L-selectin/IgG. As to the method:
Inhibitor Compounds at final concentration 0.1-200 μM were incubated in the ELISA plate for 90 min, and then washed with incubation buffer. After washing, L-selectin/IgG was added to the wells pre-incubated with compounds. At the same time, in separate control wells, L-selectin was co-incubated with inhibitor Compounds for 90 min. Following the incubation, L-selectin bound to the plate was quantified by antibody conjugated to Horse Radish Peroxidase and OD measurement as performed as described in Example 5.

The test system of experiment [3] is BALB/c mice. Description: Carrageenan-induced paw edema. The class given is in vivo, mouse. The settings on record: i.p. administration 60 min before carrageenan. Here is the method:
Acute edema was induced in the left hind paw of Balb/c mice by injecting 0.02 ml of freshly prepared solution of 2% carrageenan after 60 min of test compound administration (Torres, S. R. et al., European Journal of Pharmacology 408: 199-211, 2000). The right paw received 0.02 ml of saline, which served as a control. Carrageenan was injected under the plantar region of right hind paw and the paw thickness was measured at 2, 4 and 24 hours after carrageenan challenge using a Mitutoyo engineer's micrometer expressed as the difference between right and left pad as mean±SEM. […] A dose response curve for Compound no.
On the technique in general: The carrageenan paw model is a standard test of acute inflammation.

Turning to `CCCCN(CC)S(=O)(=O)c1ccc(C(=O)Nc2sc3c(c2-c2nc4ccccc4s2)CCN(CC)C3)cc1` [Compound 5, 2-[[4-[(ethylbutylamino)sulfonyl]benzoyl]amino]-3-(benzothiazol-2-yl)-6-ethyl-4,5,6,7-tetrahydrothieno[2,3-c]pyridine], in the experiment with Mice, the “DTH, % of control value” is reported as 56 % of control value. At L-Selectin, the inhibition (in general, the drop in the measured response relative to a control, in per cent) at 50 µM turned out to be 62%. The “reduction of leukocyte infiltration” value is listed as 25% in the experiment on BALB/c mice [1] (2 mg/kg intraperitoneal), 50% in the experiment with BALB/c mice [1] (10 mg/kg intraperitoneal) and 75% in the experiment with BALB/c mice [1] (50 mg/kg intraperitoneal). The “neutrophil infiltration in mouse peritonitis (in words)” value in the experiment on BALB/c mice [1] (FIG. 4, 2, 10, 50 mg/kg) is recorded as “dose-dependent inhibition”. In the experiment on BALB/c mice [1] (intraperitoneal, 1 hour before thioglycollate, 3 hours), the “leukocyte migration into the peritoneal cavity (in words)” value was “inhibited efficiently”. In experiment [2], the “level of inhibition of L-selectin binding to heparin, pre-incubation versus co-incubation” value was “same level of inhibition”. Further, the “carrageenan induced paw edema (in words)” value in the experiment with BALB/c mice [3] is “anti-inflammatory properties”.
